Series [1] has as its system Escherichia coli. Nature of the series: Antibacterial activity against Escherichia coli ATCC 25922. Type of series: functional.
Series [2] relates to Klebsiella pneumoniae. Nature of the series: Antibacterial activity against Klebsiella pneumoniae ATCC 700603. It counts as functional.
Series [3] has as its system Pseudomonas aeruginosa. As to the kind of experiment: Antibacterial activity against Pseudomonas aeruginosa PAO1. It counts as functional.
For series [4], the target named is T1, UDP-3-O-acyl-N-acetylglucosamine deacetylase (Escherichia coli K-12, UniProt P0A725).
T1 sequence (P0A725 whole entry): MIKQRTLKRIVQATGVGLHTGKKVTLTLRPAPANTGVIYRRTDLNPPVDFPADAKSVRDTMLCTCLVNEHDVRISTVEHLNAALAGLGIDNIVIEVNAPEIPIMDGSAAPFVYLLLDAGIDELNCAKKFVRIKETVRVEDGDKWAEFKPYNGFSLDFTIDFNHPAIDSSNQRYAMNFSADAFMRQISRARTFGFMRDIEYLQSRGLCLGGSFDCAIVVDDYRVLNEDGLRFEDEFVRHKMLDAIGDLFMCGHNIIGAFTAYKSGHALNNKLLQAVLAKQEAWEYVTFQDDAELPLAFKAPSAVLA
As to the kind of experiment: Inhibition of Escherichia coli LpxC.

The target in series [5] is T2, UDP-3-O-acyl-N-acetylglucosamine deacetylase (Pseudomonas aeruginosa (strain ATCC 15692 / PAO1 / 1C / PRS 101 / LMG12228), UniProt P47205).
T2 sequence (P47205 whole entry): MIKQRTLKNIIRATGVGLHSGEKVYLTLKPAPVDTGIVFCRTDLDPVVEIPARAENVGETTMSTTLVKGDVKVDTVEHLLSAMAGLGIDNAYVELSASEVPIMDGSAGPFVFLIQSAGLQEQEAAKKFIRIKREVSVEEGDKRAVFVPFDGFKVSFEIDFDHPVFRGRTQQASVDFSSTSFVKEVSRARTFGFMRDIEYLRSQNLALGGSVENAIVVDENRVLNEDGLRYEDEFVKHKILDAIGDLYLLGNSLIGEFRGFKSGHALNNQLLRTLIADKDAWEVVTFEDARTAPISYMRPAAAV
As to the kind of experiment: Inhibition of Pseudomonas aeruginosa LpxC.

The subject of series [6] is Pseudomonas aeruginosa. Nature of the series: Antibacterial activity against Pseudomonas aeruginosa PAO1 assessed as reduction in bacterial growth incubated for 24 hrs By CLSI based micro-dilution method. Type of series: functional.
Series [7] deals with Escherichia coli. Nature of the series: Antibacterial activity against Escherichia coli CMCC 44568 assessed as reduction in bacterial growth incubated for 22 hrs byMueller-Hinton Broth assay. It counts as functional.
Series [8] deals with Pseudomonas aeruginosa. As to the kind of experiment: Antibacterial activity against Pseudomonas aeruginosa CMCC 10104 assessed as reduction in bacterial growth incubated for 22 hrs byMueller-Hinton Broth assay. It counts as functional.
In series [9] the test system is Escherichia coli. Nature of the series: Anti-microbial activity against Escherichia coli ATCC 25922 assessed as reduction in bacterial growth incubated for 24 hrs By CLSI based micro-dilution method. It counts as functional. In general terms: In broth dilution the organism is exposed to a series of concentrations in liquid medium.
Series [10] deals with T1, UDP-3-O-acyl-N-acetylglucosamine deacetylase. Nature of the series: Binding affinity to Escherichia coli LpxC assessed as inhibition constant.
For series [11], the system named is Morganella morganii. Nature of the series: Antimicrobial activity against Morganella morganii ATCC 25830 assessed as inhibition of microbial growth incubated for 18 hrs by micro-broth dilution method. It counts as functional.
In series [12] the test system is Haemophilus influenzae. Nature of the series: Antibacterial activity against Haemophilus influenzae ATCC 49247 assessed as inhibition of microbial growth incubated for 18 hrs by micro-broth dilution method. It counts as functional.
In series [13] the test system is Serratia marcescens. Nature of the series: Antibacterial activity against Serratia marcescens assessed as inhibition of bacterial growth by Muller-Hinton broth based serial dilution method. Type of series: functional.
Series [14] relates to Escherichia coli. Nature of the series: Antibacterial activity against Escherichia coli ATCC 25922 assessed as reduction in bacterial growth incubated for 18 hrs by broth micro-dilution method. Type of series: functional.
Series [15] has as its system Escherichia coli. Nature of the series: Antibacterial activity against Escherichia coli ATCC 25922 assessed as reduction in bacterial growth by CLSI protocol based Mueller Hinton broth assay. Type of series: functional.
For series [16], the system named is Pseudomonas aeruginosa. Nature of the series: Antibacterial activity against Pseudomonas aeruginosa ATCC 27853 assessed as reduction in bacterial growth by CLSI protocol based Mueller Hinton broth assay. It counts as functional.
The subject of series [17] is Klebsiella pneumoniae. Nature of the series: Antibacterial activity against Klebsiella pneumoniae A651 assessed as reduction in bacterial growth by CLSI protocol based Mueller Hinton broth assay. It counts as functional.
Series [18] has as its system Pseudomonas aeruginosa. As to the kind of experiment: Antibacterial activity against Pseudomonas aeruginosa assessed as bacterial growth inhibition. Type of series: functional.
For series [19], the system named is Escherichia coli. Nature of the series: Antibacterial activity against Escherichia coli assessed as bacterial growth inhibition. It counts as functional.
The subject of series [20] is Escherichia coli. Nature of the series: Antibacterial activity against Escherichia coli ATCC 25922 assessed as reduction in bacterial growth. Type of series: functional.
Series [21] concerns Pseudomonas aeruginosa. As to the kind of experiment: Antibacterial activity against Pseudomonas aeruginosa ATCC 27853 assessed as reduction in bacterial growth by CLSI protocol based Muller Hinton broth assay. It counts as functional.
Series [22] deals with Yersinia enterocolitica. Nature of the series: Antibacterial activity against Yersinia enterocolitica assessed as inhibition of bacterial growth incubated for 16 to 20 hrs by CLSI protocol based Muller Hinton broth assay. The settings on record: time 16-20 hrs. It counts as functional.
In series [23] the test system is Pseudomonas aeruginosa. As to the kind of experiment: Antibacterial activity against Pseudomonas aeruginosa assessed as reduction in bacterial growth. Type of series: functional.
For series [24], the system named is Klebsiella pneumoniae. Nature of the series: Antibacterial activity against Klebsiella pneumoniae ATCC 43816 assessed as reduction in microbial growth incubated for 16 to 18 hrs by CLSI protocol based Muller Hinton broth assay. It counts as functional. The settings on record: time 16-18 hrs.
Series [25] is described as follows: Inhibition of Aquifex aeolicus LpxC.
The test system of series [26] is Salmonella typhimurium. As to the kind of experiment: Antimicrobial activity against Salmonella enterica subsp. enterica serovar Typhimurium ATCC 14028 assessed as inhibition of bacterial growth measured for 24 hrs by standard broth microdilution method. It counts as functional.
In series [27] the test system is Escherichia coli. As to the kind of experiment: Antibacterial activity against Escherichia coli ATCC 25922 incubated for 24 hrs by CLSI based micro-dilution method. It counts as functional.
Series [28] deals with Pseudomonas aeruginosa. As to the kind of experiment: Antibacterial activity against Pseudomonas aeruginosa ATCC 27853 assessed as reduction in bacterial growth incubated for 18 hrs by broth micro-dilution method. Type of series: functional.
Series [29] has as its system Klebsiella pneumoniae. As to the kind of experiment: Antibacterial activity against Klebsiella pneumoniae ATCC 700603 assessed as inhibition of bacterial growth incubated for 18 hrs by broth micro-dilution method. Type of series: functional.
The subject of series [30] is Escherichia coli. As to the kind of experiment: Antimicrobial activity against Escherichia coli ATCC 25922 assessed as reduction in bacterial growth incubated for 18 hrs by micro-dilution method. It counts as functional.
Series [31] is described as follows: Toxicity in CD-1 mouse assessed as effective dose. As to conditions: in vivo.
Series [32] concerns the target T2, UDP-3-O-acyl-N-acetylglucosamine deacetylase. Nature of the series: Binding affinity to Pseudomonas aeruginosa LpxC assessed as inhibition constant.

Values after ≈ are worked out from the molar mass of the structure shown.

These results are taken from ChEMBL document CHEMBL6134815, “Research progress of LpxC inhibitor on Gram-negative bacteria” (Eur J Med Chem, 2025).

`COC[C@@H]1C[C@H]1C#CC#Cc1ccc(C(=O)N[C@H](C(=O)NO)C(C)(C)N)cc1`: the MIC was found to be 0.12 mg/L (≈ 0.313 µM) in series [1], 0.5 mg/L (≈ 1.3 µM) in [2] and 0.5 mg/L (≈ 1.3 µM) in series [3].

In the case of `CNC(=O)c1ccc(-c2ccc(NCc3oc(S(C)(=O)=O)cc(=O)c3O)cc2)cc1`, in [4], the IC50 stood at 100 nM.

For the compound `O=C(NO)C1(NCc2ccc(-c3ccc(Cl)cc3F)c(F)c2)CCS(=O)(=O)CC1`, in series [5], the concentration for half-maximal inhibition (IC50) turned out to be 0.2 nM. Also, in series [6], the MIC came out at 0.25 mg/L (≈ 0.562 µM).

On to `N=C(N)N/N=C/c1ccc(C#CC#Cc2ccccc2Cl)cc1`, for which the MIC amounted to 8 mg/L (≈ 24.9 µM) in series [7] and 4 mg/L (≈ 12.5 µM) in series [8].

For `O=C(NO)[C@@H](OCc1ccc(C#Cc2ccc(CN3CCOCC3)cc2)cc1)[C@@H](O)COCc1ccccc1`, the MIC in [9] worked out at 0.125 mg/L (≈ 0.236 µM).

In the case of `O=C(NO)[C@H]1O[C@@H](c2ccc(C#Cc3ccc(CN4CCOCC4)cc3)cc2)C[C@H]1O`, the MIC in [9] was 2 mg/L (≈ 4.73 µM). Also, in series [10], the Ki was 3500 nM.

As for `O=C(NO)[C@@H](Cc1ccc2ccccc2c1)NS(=O)(=O)c1ccc2ccccc2c1`, the results for the MIC in [11], in series [12] and in series [13] were 1 mg/L, 1 mg/L and 1 mg/L (≈ 2.38 µM), respectively. Also, in series [4], the IC50 is 160 nM.

In the case of `N=C(N)N/N=C/c1ccc(C#CC#Cc2ccc(Cl)cc2)cc1`, the MIC in series [7] was found to be 2 mg/L (≈ 6.23 µM); in [8], 1 mg/L (≈ 3.12 µM).

In series [4], `O=C(CO/N=C/c1ccc(O)c(O)c1O)NC[C@H]1O[C@@H](n2ccc(=O)[nH]c2=O)[C@@H](O)[C@H]1O` gave a 50% inhibitory concentration (IC50) of 27000 nM.

Consider `CCCc1cc(C2=NC(C(=O)NO)CO2)ccc1OC` (stereo not drawn), for which the MIC in series [14] is 1 mg/L (≈ 3.59 µM).

Consider `CS(=O)(=O)c1cc(=O)c(O)c(CNc2ccc(-c3ccc(N4CCOCC4)cc3)cc2)o1`, for which the half-maximal inhibitory concentration (IC50) in [4] worked out at 100 nM.

In the case of `C[C@]1(CO)C[C@@H]1C#CC#Cc1ccc2c(=O)n(CC[C@](C)(C(=O)NO)S(C)(=O)=O)cnc2c1`, the MIC in series [15] came out at 0.063 mg/L (≈ 0.134 µM); in series [16], 1 mg/L (≈ 2.12 µM); in series [17], 0.25 mg/L (≈ 0.53 µM).

Take `O=C(NO)[C@@H](Cc1ccc2ccccc2c1)NS(=O)(=O)c1ccc2cc(Br)ccc2c1`: the figures for the MIC in series [11], in series [12] and in [13] were 1 mg/L, 1 mg/L and 1 mg/L (≈ 2 µM), respectively. The IC50 in series [4] was found to be 400 nM.

Consider `CC(O)C(CP(=O)(O)O)NC(=O)c1ccc(C#Cc2ccc(CN3CCOCC3)cc2)cc1` (stereo not drawn), for which the MIC is 2.06 mg/L (≈ 4.36 µM) in [18] and 0.28 mg/L (≈ 0.593 µM) in series [19].

As for `CC(C)(N)[C@H](NC(=O)c1ccc(C#CC#C[C@@H]2C[C@H]2CO)cc1)C(=O)NO` [ACHN-975], the MIC in [20] is 0.125 mg/L (≈ 0.338 µM); in [21] it was 0.25 mg/L (≈ 0.677 µM); in [22] it was 2 mg/L (≈ 5.41 µM); in [23], at most 1 mg/L; in [24], 0.5 mg/L.

Regarding `CCCCCC(=O)O[C@@H]1[C@@H](CP(C)(=O)O)CO[C@H](CO)[C@H]1O`, the IC50 came out at 115000 nM in [4] and 192000 nM in series [25].

For `O=C(NO)[C@H]1O[C@@H](c2ccc(C#CC#Cc3ccccc3)cc2)[C@@H](O)[C@H]1O`, in series [10], the Ki turned out to be 4400 nM.

Regarding `C[C@@](CCN1Cc2cc(C#Cc3ccc([C@H]4C[C@@H]4CO)cc3)cn2C1=O)(C(=O)NO)S(C)(=O)=O`, the MIC in series [15] turned out to be 0.031 mg/L (≈ 0.0638 µM); in series [16], 0.5 mg/L (≈ 1.03 µM); in series [17] it was 0.125 mg/L (≈ 0.257 µM).

As to `C[C@@H](O)[C@H](NC(=O)c1ccc(C#CC#Cc2ccccc2)cc1)C(=O)NO`, the MIC in [26] is 0.024 mg/L (≈ 0.0662 µM); in series [27], 0.05 mg/L (≈ 0.138 µM); in [28] it was 0.74 mg/L (≈ 2.04 µM).

Consider `C[C@@](O)(C(F)F)[C@H](NC(=O)c1ccc(C#CC#CC2CC2)cc1)C(=O)NO`, for which the MIC90 in series [29] is 0.125 mg/L (≈ 0.332 µM); in series [30], 0.5 mg/L (≈ 1.33 µM). Besides, in series [31], the median effective dose (ED50) came out at 7.2 mg/kg/day. Moreover, in series [32], the inhibition constant (Ki) was determined as 0.0089 nM.

Turning to `CC(O)C#CC#Cc1ccc(C2=NO[C@@H](C[C@](C)(C(=O)NO)S(C)(=O)=O)C2)cc1` (stereo partly drawn), the MIC in series [6] came to 0.06 mg/L (≈ 0.143 µM).

As usually defined, the IC50 is the concentration that inhibits the measured activity by half. A higher IC50 goes with lower potency. Broadly, the Ki is a dissociation constant, usually derived from enzyme kinetics or from competition with a known ligand. As a reminder, the MIC90 is the lowest concentration that inhibits either 90% of growth or 90% of the strains tested, depending on the study. The ED50 is the dose at which the effect has come halfway, by size or by number of responders.
